Measured values reported in PubChem BioAssay (NCI).
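Cultured in 96-well plates, cells were exposed to test compound for 48 hours across five concentrations. TGI is the concentration that stops growth completely.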

Experiments:
Experiment in all cases: inhibition of tumour cell growth, NCI panel, 48 h
786-0 renal = system: 786-0 renal
A498 renal = system: A498 renal
A549 NSCLC = system: A549 NSCLC
ACHN renal = system: ACHN renal
BT-549 breast = system: BT-549 breast
CAKI-1 renal = system: CAKI-1 renal
CCRF-CEM leukemia = system: CCRF-CEM leukemia
COLO 205 colon = system: COLO 205 colon
EKVX NSCLC = system: EKVX NSCLC
HCC-2998 colon = system: HCC-2998 colon
HCT-116 colon = system: HCT-116 colon
HCT-15 colon = system: HCT-15 colon
HL-60(TB) leukemia = system: HL-60(TB) leukemia
HOP-62 NSCLC = system: HOP-62 NSCLC
HOP-92 NSCLC = system: HOP-92 NSCLC
HT29 colon = system: HT29 colon
IGROV1 ovarian = system: IGROV1 ovarian
K-562 leukemia = system: K-562 leukemia
KM12 colon = system: KM12 colon
LOX IMVI melanoma = system: LOX IMVI melanoma
M14 melanoma = system: M14 melanoma
MALME-3M melanoma = system: MALME-3M melanoma
MCF7 breast = system: MCF7 breast
MDA-MB-231 breast = system: MDA-MB-231 breast
MDA-MB-435 = system: MDA-MB-435
MDA-N = system: MDA-N
MOLT-4 leukemia = system: MOLT-4 leukemia
NCI-H226 lung = system: NCI-H226 lung
NCI-H23 lung = system: NCI-H23 lung
NCI-H522 lung = system: NCI-H522 lung
NCI/ADR-RES ovarian = system: NCI/ADR-RES ovarian
OVCAR-3 ovarian = system: OVCAR-3 ovarian
OVCAR-4 ovarian = system: OVCAR-4 ovarian
OVCAR-5 ovarian = system: OVCAR-5 ovarian
OVCAR-8 ovarian = system: OVCAR-8 ovarian
PC-3 prostate = system: PC-3 prostate
RPMI-8226 leukemia = system: RPMI-8226 leukemia
SF-295 CNS = system: SF-295 CNS
SF-539 CNS = system: SF-539 CNS
SK-MEL-2 melanoma = system: SK-MEL-2 melanoma
SK-MEL-28 melanoma = system: SK-MEL-28 melanoma
SK-MEL-5 melanoma = system: SK-MEL-5 melanoma
SK-OV-3 ovarian = system: SK-OV-3 ovarian
SN12C renal = system: SN12C renal
SNB-19 CNS = system: SNB-19 CNS
SNB-75 CNS = system: SNB-75 CNS
SR leukemia = system: SR leukemia
SW-620 colon = system: SW-620 colon
T-47D breast = system: T-47D breast
TK-10 renal = system: TK-10 renal
U251 CNS = system: U251 CNS
UACC-257 melanoma = system: UACC-257 melanoma
UACC-62 melanoma = system: UACC-62 melanoma
UO-31 renal = system: UO-31 renal
DU-145 prostate = system: DU-145 prostate
HS 578T breast = system: HS 578T breast
NCI-H460 lung = system: NCI-H460 lung
SF-268 CNS = system: SF-268 CNS
RXF 393 renal = system: RXF 393 renal

COc1ccccc1NCc1cccc2c(=O)c3ccc(Cl)cc3oc12
TGI (786-0 renal): > 100 µM
TGI (A498 renal): > 100 µM
TGI (A549 NSCLC): > 100 µM
TGI (ACHN renal): > 100 µM
TGI (BT-549 breast): > 100 µM
TGI (CAKI-1 renal): > 100 µM
TGI (CCRF-CEM leukemia): > 100 µM
TGI (COLO 205 colon): > 100 µM
TGI (EKVX NSCLC): > 100 µM
TGI (HCC-2998 colon): > 100 µM
TGI (HCT-116 colon): > 100 µM
TGI (HCT-15 colon): > 100 µM
TGI (HL-60(TB) leukemia): 64 µM
TGI (HOP-62 NSCLC): > 100 µM
TGI (HOP-92 NSCLC): > 100 µM
TGI (HT29 colon): > 100 µM
TGI (IGROV1 ovarian): > 100 µM
TGI (K-562 leukemia): > 100 µM
TGI (KM12 colon): > 100 µM
TGI (LOX IMVI melanoma): > 100 µM
TGI (M14 melanoma): > 100 µM
TGI (MALME-3M melanoma): > 100 µM
TGI (MCF7 breast): > 100 µM
TGI (MDA-MB-231 breast): > 100 µM
TGI (MDA-MB-435): > 100 µM
TGI (MDA-N): > 100 µM
TGI (MOLT-4 leukemia): > 100 µM
TGI (NCI-H226 lung): > 100 µM
TGI (NCI-H23 lung): > 100 µM
TGI (NCI-H522 lung): > 100 µM
TGI (NCI/ADR-RES ovarian): > 100 µM
TGI (OVCAR-3 ovarian): > 100 µM
TGI (OVCAR-4 ovarian): > 100 µM
TGI (OVCAR-5 ovarian): > 100 µM
TGI (OVCAR-8 ovarian): > 100 µM
TGI (PC-3 prostate): > 100 µM
TGI (RPMI-8226 leukemia): > 100 µM
TGI (SF-295 CNS): > 100 µM
TGI (SF-539 CNS): > 100 µM
TGI (SK-MEL-2 melanoma): > 100 µM
TGI (SK-MEL-28 melanoma): > 100 µM
TGI (SK-MEL-5 melanoma): > 100 µM
TGI (SK-OV-3 ovarian): > 100 µM
TGI (SN12C renal): > 100 µM
TGI (SNB-19 CNS): > 100 µM
TGI (SNB-75 CNS): > 100 µM
TGI (SR leukemia): > 100 µM
TGI (SW-620 colon): > 100 µM
TGI (T-47D breast): > 100 µM
TGI (TK-10 renal): > 100 µM
TGI (U251 CNS): > 100 µM
TGI (UACC-257 melanoma): > 100 µM
TGI (UACC-62 melanoma): > 100 µM
TGI (UO-31 renal): > 100 µM

O=C1CCCCC/C1=C\c1ccccc1
TGI (786-0 renal): > 100 µM
TGI (A498 renal): > 100 µM
TGI (A549 NSCLC): > 100 µM
TGI (ACHN renal): > 100 µM
TGI (BT-549 breast): > 100 µM
TGI (CAKI-1 renal): > 100 µM
TGI (COLO 205 colon): > 100 µM
TGI (DU-145 prostate): > 100 µM
TGI (EKVX NSCLC): > 100 µM
TGI (HCC-2998 colon): > 100 µM
TGI (HCT-116 colon): > 100 µM
TGI (HCT-15 colon): > 100 µM
TGI (HL-60(TB) leukemia): > 100 µM
TGI (HOP-62 NSCLC): > 100 µM
TGI (HOP-92 NSCLC): > 100 µM
TGI (HS 578T breast): > 100 µM
TGI (HT29 colon): > 100 µM
TGI (IGROV1 ovarian): > 100 µM
TGI (K-562 leukemia): > 100 µM
TGI (KM12 colon): > 100 µM
TGI (LOX IMVI melanoma): > 100 µM
TGI (M14 melanoma): > 100 µM
TGI (MALME-3M melanoma): > 100 µM
TGI (MDA-MB-231 breast): > 100 µM
TGI (MDA-MB-435): > 100 µM
TGI (MDA-N): > 100 µM
TGI (MOLT-4 leukemia): > 100 µM
TGI (NCI-H226 lung): > 100 µM
TGI (NCI-H23 lung): > 100 µM
TGI (NCI-H460 lung): > 100 µM
TGI (NCI-H522 lung): > 100 µM
TGI (OVCAR-3 ovarian): > 100 µM
TGI (OVCAR-4 ovarian): > 100 µM
TGI (OVCAR-5 ovarian): > 100 µM
TGI (PC-3 prostate): > 100 µM
TGI (RPMI-8226 leukemia): > 100 µM
TGI (SF-268 CNS): > 100 µM
TGI (SF-295 CNS): > 100 µM
TGI (SK-MEL-2 melanoma): > 100 µM
TGI (SK-MEL-28 melanoma): > 100 µM
TGI (SK-MEL-5 melanoma): > 100 µM
TGI (SK-OV-3 ovarian): > 100 µM
TGI (SN12C renal): > 100 µM
TGI (SNB-19 CNS): > 100 µM
TGI (SNB-75 CNS): > 100 µM
TGI (SR leukemia): > 100 µM
TGI (SW-620 colon): > 100 µM
TGI (T-47D breast): > 100 µM
TGI (TK-10 renal): > 100 µM
TGI (U251 CNS): > 100 µM
TGI (UACC-257 melanoma): > 100 µM
TGI (UACC-62 melanoma): > 100 µM
TGI (UO-31 renal): > 100 µM

Cc1ccc2[nH]c3[nH]c(=S)[nH]c(=O)c3c2c1
TGI (786-0 renal): > 100 µM
TGI (A498 renal): > 100 µM
TGI (A549 NSCLC): > 100 µM
TGI (ACHN renal): > 100 µM
TGI (BT-549 breast): > 100 µM
TGI (CAKI-1 renal): > 100 µM
TGI (CCRF-CEM leukemia): > 100 µM
TGI (COLO 205 colon): > 100 µM
TGI (DU-145 prostate): > 100 µM
TGI (EKVX NSCLC): > 100 µM
TGI (HCC-2998 colon): > 100 µM
TGI (HCT-116 colon): > 100 µM
TGI (HCT-15 colon): > 100 µM
TGI (HL-60(TB) leukemia): > 100 µM
TGI (HOP-62 NSCLC): > 100 µM
TGI (HOP-92 NSCLC): > 100 µM
TGI (HS 578T breast): > 100 µM
TGI (HT29 colon): > 100 µM
TGI (IGROV1 ovarian): > 100 µM
TGI (K-562 leukemia): > 100 µM
TGI (KM12 colon): > 100 µM
TGI (LOX IMVI melanoma): > 100 µM
TGI (M14 melanoma): > 100 µM
TGI (MALME-3M melanoma): > 100 µM
TGI (MCF7 breast): > 100 µM
TGI (MDA-MB-231 breast): > 100 µM
TGI (MDA-MB-435): > 100 µM
TGI (MDA-N): > 100 µM
TGI (MOLT-4 leukemia): > 100 µM
TGI (NCI-H226 lung): > 100 µM
TGI (NCI-H23 lung): > 100 µM
TGI (NCI-H522 lung): > 100 µM
TGI (NCI/ADR-RES ovarian): > 100 µM
TGI (OVCAR-3 ovarian): > 100 µM
TGI (OVCAR-5 ovarian): > 100 µM
TGI (OVCAR-8 ovarian): > 100 µM
TGI (RPMI-8226 leukemia): > 100 µM
TGI (RXF 393 renal): > 100 µM
TGI (SF-268 CNS): > 100 µM
TGI (SF-295 CNS): > 100 µM
TGI (SF-539 CNS): > 100 µM
TGI (SK-MEL-2 melanoma): > 100 µM
TGI (SK-MEL-5 melanoma): > 100 µM
TGI (SK-OV-3 ovarian): > 100 µM
TGI (SN12C renal): > 100 µM
TGI (SNB-19 CNS): > 100 µM
TGI (SNB-75 CNS): > 100 µM
TGI (SR leukemia): > 100 µM
TGI (SW-620 colon): > 100 µM
TGI (T-47D breast): > 100 µM
TGI (TK-10 renal): > 100 µM
TGI (UACC-257 melanoma): > 100 µM
TGI (UACC-62 melanoma): > 100 µM
TGI (UO-31 renal): > 100 µM
